From patent publication US11696914B1 (priority 2019, dated 2023)

Target: Zaire ebolavirus disulfide-linked glycoprotein heterodimer (GP1-GP2) (Zaire ebolavirus, UniProt Q05320)
Experiment: biochemical
Type: binding

Sequence of Zaire ebolavirus disulfide-linked glycoprotein heterodimer (GP1-GP2) (Q05320 33-501 limits assumed): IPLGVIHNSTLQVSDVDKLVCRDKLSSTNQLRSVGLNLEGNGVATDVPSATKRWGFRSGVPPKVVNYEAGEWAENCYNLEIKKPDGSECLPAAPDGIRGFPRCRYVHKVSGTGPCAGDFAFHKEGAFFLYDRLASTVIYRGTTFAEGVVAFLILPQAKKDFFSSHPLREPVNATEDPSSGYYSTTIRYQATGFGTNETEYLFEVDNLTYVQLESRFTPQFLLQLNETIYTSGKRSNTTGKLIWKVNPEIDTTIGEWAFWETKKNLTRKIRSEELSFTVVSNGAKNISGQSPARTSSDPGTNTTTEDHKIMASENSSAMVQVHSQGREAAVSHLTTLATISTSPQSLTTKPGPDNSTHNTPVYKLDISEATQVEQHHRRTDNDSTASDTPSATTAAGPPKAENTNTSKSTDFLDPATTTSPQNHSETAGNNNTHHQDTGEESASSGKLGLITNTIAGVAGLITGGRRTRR
Sequence of Zaire ebolavirus disulfide-linked glycoprotein heterodimer (GP1-GP2) (Q05320 502-676 limits assumed): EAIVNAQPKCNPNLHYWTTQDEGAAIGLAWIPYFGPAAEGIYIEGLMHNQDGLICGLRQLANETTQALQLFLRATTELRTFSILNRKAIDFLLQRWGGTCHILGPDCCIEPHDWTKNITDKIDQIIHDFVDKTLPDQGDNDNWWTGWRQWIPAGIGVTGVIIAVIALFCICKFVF

SMILES | Kd [µM] | binds to EBOV glycoprotein
COc1ccc2nc3cc(Cl)ccc3c(Nc3cc(CN4CCCC4)c(O)c(CN4CCCC4)c3)c2n1 [Pyronaridine, 4-[(7-Chloro-2-methoxybenzo[b][1,5]naph-thyridin-10-yl)amino]-2,6-bis(1-pyrrolidinylmethyl)phenol phosphate (1:4)] | 7.34 | 
CCN(CC)CCOc1ccc2c(c1)C(=O)c1cc(OCCN(CC)CC)ccc1-2 [Tilorone] | 0.73 | 
CCN(CC)CCCC(C)Nc1c2ccc(Cl)cc2nc2ccc(OC)cc12 (centres unmarked) [Quinacrine] | 7.55 | 
C[C@H]1[C@H](OC(=O)CCC(=O)O)O[C@@H]2O[C@@]3(C)CC[C@H]4[C@H](C)CC[C@@H]1[C@@]24OO3 [Artesunate] |  | did not
NC(=O)c1nc(F)c[nH]c1=O [Favipiravir] |  | did not
